Counter-ions that a name gives are not always drawn.
Assays:
[1] = tested on: A431 cells (human epidermoid carcinoma); test: In vitro tumor cell proliferation assay (Cell Titer-Glo luminescent cell viability), A431; format: cell-based; conditions: A-431, 72 h, 72 hours of drug exposure, ATP luminescence readout, read-out: IC50, anti-proliferative activity (inhibition of cell proliferation)
Summary of the method: (§1)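 CellTiter-Glo luminescence (ATP content of metabolically active cells) after 72 h compound exposure at 37° C gave IC50s.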

[2] = tested on: BT474 (human breast carcinoma); test: In vitro tumor cell proliferation assay (Cell Titer-Glo luminescent cell viability), BT474; format: cell-based; conditions: BT-474, 72 h, BT474 cells, 72 hours of drug exposure, ATP luminescence readout, read-out: IC50, anti-proliferative activity (inhibition of cell proliferation)
Summary of the method: as §1

Structure (SMILES)	IC50 [1] [µM]	IC50 [2] [µM]
CN(C)CCCCNCCn1cc2c(n1)CCc1c-2sc2ncnc(Nc3ccc(F)c(Cl)c3)c12 [Example 17, N′-(2-{6-[(3-chloro-4-fluorophenyl)amino]-4,5-dihydro-2H-pyrimido[5′,4′:4,5]thieno[2,3-e]indazol-2-yl}ethyl)-N,N-dimethylbutane-1,4-diamine]	≤ 5	≤ 5
Fc1ccc(Nc2ncnc3sc4c(c23)CCc2nn(CCn3ccnc3)cc2-4)cc1Cl [Example 12, N-(3-chloro-4-fluorophenyl)-2-[2-(1H-imidazol-1-yl)ethyl]-4,5-dihydro-2H-pyrimido[5′,4′:4,5]thieno[2,3-e]indazol-6-amine]	≤ 5	≤ 5
OCCn1cc2c(n1)CCc1c-2sc2ncnc(Nc3ccc(OCc4cccc(F)c4)c(Cl)c3)c12 [Example 56, 2-[6-({3-chloro-4-[(3-fluorobenzyl)oxy]phenyl}amino)-4,5-dihydro-2H-pyrimido[5′,4′:4,5]thieno[2,3-e]indazol-2-yl]ethanol]	≤ 5	≤ 1
CNCCn1cc2c(n1)CCc1c-2sc2ncnc(Nc3ccc(OCc4cccc(F)c4)c(Cl)c3)c12 [Example 71, N-{3-chloro-4-[(3-fluorobenzyl)oxy]phenyl}-2-[2-(methylamino)ethyl]-4,5-dihydro-2H-pyrimido[5′,4′:4,5]thieno[2,3-e]indazol-6-amine]	≤ 50	≤ 1
CNC[C@@H](O)Cn1ncc2c1CCc1c-2sc2ncnc(Nc3ccc(OCc4cccc(F)c4)c(Cl)c3)c12 [Example 166, (2R)-1-[6-({3-chloro-4-[(3-fluorobenzyl)oxy]phenyl}amino)-4,5-dihydro-3H-pyrimido[5′,4′:4,5]thieno[2,3-e]indazol-3-yl]-3-(methylamino)propan-2-ol trifluoroacetate (salt)]	≤ 50	≤ 1
COCCN1CCN(CCn2ncc3c2CCc2c-3sc3ncnc(Nc4ccc(OCc5cccc(F)c5)c(Cl)c4)c23)CC1 [Example 265, N-{3-chloro-4-[(3-fluorobenzyl)oxy]phenyl}-3-{2-[4-(2-methoxyethyl)piperazin-1-yl]ethyl}-4,5-dihydro-3H-pyrimido[5′,4′:4,5]thieno[2,3-e]indazol-6-amine trifluoroacetate]	≤ 50	≤ 1
O=C(Cn1cc2c(n1)CCc1c-2sc2ncnc(Nc3ccc(OCc4cccc(F)c4)c(Cl)c3)c12)N(CCO)CCO [Example 187, 2-[6-({3-chloro-4-[(3-fluorobenzyl)oxy]phenyl}amino)-4,5-dihydro-2H-pyrimido[5′,4′:4,5]thieno[2,3-e]indazol-2-yl]-N,N-bis(2-hydroxyethyl)acetamide]	≤ 50	≤ 1
CN(C)[C@@H]1CCN(CCn2cc3c(n2)CCc2c-3sc3ncnc(Nc4ccc(OCc5cccc(F)c5)c(Cl)c4)c23)C1 [Example 60, N-{3-chloro-4-[(3-fluorobenzyl)oxy]phenyl}-2-{2-[(3R)-3-(dimethylamino)pyrrolidin-1-yl]ethyl}-4,5-dihydro-2H-pyrimido[5′,4′:4,5]thieno[2,3-e]indazol-6-amine]	≤ 5	≤ 1
OC[C@@H](O)Cn1cc2c(n1)CCc1c-2sc2ncnc(Nc3ccc(OCc4cccc(F)c4)c(Cl)c3)c12 [Example 75, (S)-3-{6-[3-Chloro-4-(3-fluoro-benzyloxy)-phenylamino]-4,5-dihydro-10-thia-2,3,7,9-tetraaza-cyclopenta[a]fluoren-2-yl}-propane-1,2-diol]	≤ 5	≤ 1
O[C@H](CNCCN1CCOCC1)Cn1cc2c(n1)CCc1c-2sc2ncnc(Nc3ccc(OCc4cccc(F)c4)c(Cl)c3)c12 [Example 142, (2R)-1-[6-({3-chloro-4-[(3-fluorobenzyl)oxy]phenyl}amino)-4,5-dihydro-2H-pyrimido[5′,4′:4,5]thieno[2,3-e]indazol-2-yl]-3-[(2-morpholin-4-ylethyl)amino]propan-2-ol]	≤ 50	≤ 1
CN(C)C1CCN(CCn2cc3c(n2)CCc2c-3sc3ncnc(Nc4ccc5c(cnn5Cc5cccc(F)c5)c4)c23)C1 (centres unmarked) [Example 282, 2-{2-[3-(dimethylamino)pyrrolidin-1-yl]ethyl}-N-[1-(3-fluorobenzyl)-1H-indazol-5-yl]-4,5-dihydro-2H-pyrimido[5′,4′:4,5]thieno[2,3-e]indazol-6-amine]	≤ 5	≤ 1
CCCc1nccn1CCn1cc2c(n1)CCc1c-2sc2ncnc(Nc3ccc(F)c(Cl)c3)c12 [Example 41, N-(3-chloro-4-fluorophenyl)-2-[2-(2-propyl-1H-imidazol-1-yl)ethyl]-4,5-dihydro-2H-pyrimido[5′,4′:4,5]thieno[2,3-e]indazol-6-amine]	≤ 5	≤ 5
CS(=O)(=O)CCNC(=O)Cn1cc2c(n1)CCc1c-2sc2ncnc(Nc3ccc(OCc4cccc(F)c4)c(Cl)c3)c12 [Example 180, 2-[6-({3-chloro-4-[(3-fluorobenzyl)oxy]phenyl}amino)-4,5-dihydro-2H-pyrimido[5′,4′:4,5]thieno[2,3-e]indazol-2-yl]-N-[2-(methylsulfonyl)ethyl]acetamide]	≤ 50	≤ 1
Clc1cc(Nc2ncnc3sc4c(c23)CCc2c-4cnn2CCN2CCOCC2)ccc1OCc1ccccn1 [Example 111, N-[3-chloro-4-(pyridin-2-ylmethoxy)phenyl]-3-(2-morpholin-4-ylethyl)-4,5-dihydro-3H-pyrimido[5′,4′:4,5]thieno[2,3-e]indazol-6-amine]	≤ 50	≤ 1
Fc1ccc(Nc2ncnc3sc4c(c23)CCc2nn(CCN3CCSCC3)cc2-4)cc1Cl [Example 35, N-(3-chloro-4-fluorophenyl)-2-(2-thiomorpholin-4-ylethyl)-4,5-dihydro-2H-pyrimido[5′,4′:4,5]thieno[2,3-e]indazol-6-amine]	≤ 5	≤ 5
CCCN1CCC(CCn2cc3c(n2)CCc2c-3sc3ncnc(Nc4ccc(OCc5cccc(F)c5)c(Cl)c4)c23)CC1 [Example 253, N-{3-chloro-4-[(3-fluorobenzyl)oxy]phenyl}-2-[2-(1-propylpiperidin-4-yl)ethyl]-4,5-dihydro-2H-pyrimido[5′,4′:4,5]thieno[2,3-e]indazol-6-amine]	≤ 5	≤ 1
O=C(Cn1ncc2c1CCc1c-2sc2ncnc(Nc3ccc(OCc4cccc(F)c4)c(Cl)c3)c12)NCCN1CCNCC1 [Example 200, 2-[6-({3-chloro-4-[(3-fluorobenzyl)oxy]phenyl}amino)-4,5-dihydro-3H-pyrimido[5′,4′:4,5]thieno[2,3-e]indazol-3-yl]-N-(2-piperazin-1-ylethyl)acetamide]	≤ 50	≤ 1
CC(C)(C)[Si](C)(C)OCCn1cc2c(n1)CCc1c-2sc2ncnc(Nc3ccc(OCc4ccccc4)c(Cl)c3)c12 [Example 123, N-[4-(benzyloxy)-3-chlorophenyl]-2-(2-{[tert-butyl(dimethyl)silyl]oxy}ethyl)-4,5-dihydro-2H-pyrimido[5′,4′:4,5]thieno[2,3-e]indazol-6-amine]	≤ 50	≤ 5
CCOC(=O)N1CCN(C(=O)Cn2ncc3c2CCc2c-3sc3ncnc(Nc4ccc(OCc5cccc(F)c5)c(Cl)c4)c23)CC1 [Example 198, ethyl 4-{[6-({3-chloro-4-[(3-fluorobenzyl)oxy]phenyl}amino)-4,5-dihydro-3H-pyrimido[5′,4′:4,5]thieno[2,3-e]indazol-3-yl]acetyl}piperazine-1-carboxylate]	≤ 50	≤ 1
